# Data published in article PMC10893357 (Viruses, 2024).
# Key:
# Format in all cases: cell-based
# [1] = system: SARS-CoV-2 Wuhan, lineage B.1.1 hCoV-19/Russia/Omsk202118_1707/2020; assay: Antiviral CPE reduction assay in Vero E6 cells, Wuhan; conditions: Severe acute respiratory syndrome coronavirus 2, Vero C1008, 96 h
# [2] = system: SARS-CoV-2 Delta, lineage B.1.617.2 hCoV-19/Russia/PSK-2804/2021; assay: Antiviral CPE reduction assay in Vero E6 cells, Delta; conditions: Severe acute respiratory syndrome coronavirus 2, Vero C1008, 96 h
# [3] = system: SARS-CoV-2 Omicron, BA.1 hCoV-19/Russia/Moscow171619-031221/2021; assay: Antiviral CPE reduction assay in Vero E6 cells, Omicron BA.1; conditions: Severe acute respiratory syndrome coronavirus 2, Vero C1008, 96 h
# [4] = system: SARS-CoV-2 Omicron, BA 5.2 hCov-19/Russia/Moscow-49415/2022; assay: Antiviral CPE reduction assay in Vero E6 cells, Omicron BA.5.2; conditions: Severe acute respiratory syndrome coronavirus 2, Vero C1008, 96 h
# [5] = system: SARS-CoV-2 Omicron, XBB 1.5 hCoV-19/Russia/SAK-SRC-8527/2023; assay: Antiviral CPE reduction assay in Vero E6 cells, Omicron XBB.1.5; conditions: Severe acute respiratory syndrome coronavirus 2, Vero C1008, 96 h
# [6] = system: SARS-CoV-2 Omicron lineage BQ.1.1 hCoV-19/Russia/TOM-SRC-8663/2023; assay: Antiviral CPE reduction assay in Vero E6 cells, Omicron BQ.1.1; conditions: Severe acute respiratory syndrome coronavirus 2, Vero C1008, 96 h
# [7] = Cytotoxicity (MTT) in Vero E6 cells; conditions: African green monkey
SMILES,EC50 [1] [µM],EC50 [2] [µM],EC50 [3] [µM],EC50 [4] [µM],EC50 [5] [µM],EC50 [6] [µM],CC50 at 4 days [7] [µM]
CC(=O)C1=C(O)C=C2Oc3c(-c4csc(N/N=C/c5ccc(Br)s5)n4)c(O)c(C)c(O)c3[C@@]2(C)C1=O [(+)-3e],25.3 ± 2.2,41.5 ± 3.1,20.7 ± 1.6,20 ± 1.6,22.4 ± 2,32.2 ± 2.6,350 ± 21.2
"CCC(CC)COC(=O)[C@H](C)N[P@](=O)(OC[C@H]1O[C@@](C#N)(c2ccc3c(N)ncnn23)[C@H](O)[C@@H]1O)Oc1ccccc1 [Remdesivir, reference compound]",3.8 ± 0.42,2.1 ± 0.16,2 ± 0.13,4.45 ± 1,2.65 ± 0.6,3.13 ± 0.9,711 ± 21.2
